Measured values reported in BigSolDB 2.1.

Compound: COc1cc(CC#N)cc(OC)c1OC
- solubility (mole fraction) (in DMF, 283.15 K): 0.102
- solubility (mole fraction) (in DMF, 288.15 K): 0.127
- solubility (mole fraction) (in DMF, 293.15 K): 0.158
- solubility (mole fraction) (in DMF, 298.15 K): 0.195
- solubility (mole fraction) (in DMF, 303.15 K): 0.239
- solubility (mole fraction) (in DMF, 308.15 K): 0.289
- solubility (mole fraction) (in DMF, 313.15 K): 0.35
- solubility (mole fraction) (in DMF, 318.15 K): 0.418
- solubility (mole fraction) (in DMF, 323.15 K): 0.497
- solubility (mole fraction) (in cyclohexane, 283.15 K): 0.000133
- solubility (mole fraction) (in cyclohexane, 288.15 K): 0.000248
- solubility (mole fraction) (in cyclohexane, 293.15 K): 0.000452
- solubility (mole fraction) (in cyclohexane, 298.15 K): 0.000814
- solubility (mole fraction) (in cyclohexane, 303.15 K): 0.00154
- solubility (mole fraction) (in cyclohexane, 308.15 K): 0.00253
- solubility (mole fraction) (in cyclohexane, 313.15 K): 0.00421
- solubility (mole fraction) (in cyclohexane, 318.15 K): 0.00671
- solubility (mole fraction) (in cyclohexane, 323.15 K): 0.011
- solubility (mole fraction) (in ethanol, 283.15 K): 0.00753
- solubility (mole fraction) (in ethanol, 288.15 K): 0.00999
- solubility (mole fraction) (in ethanol, 293.15 K): 0.0141
- solubility (mole fraction) (in ethanol, 298.15 K): 0.0209
- solubility (mole fraction) (in ethanol, 303.15 K): 0.0327
- solubility (mole fraction) (in ethanol, 308.15 K): 0.0539
- solubility (mole fraction) (in ethanol, 313.15 K): 0.0927
- solubility (mole fraction) (in ethanol, 318.15 K): 0.167
- solubility (mole fraction) (in ethanol, 323.15 K): 0.312
- solubility (mole fraction) (in ethyl acetate, 283.15 K): 0.0517
- solubility (mole fraction) (in ethyl acetate, 288.15 K): 0.076
- solubility (mole fraction) (in ethyl acetate, 293.15 K): 0.107
- solubility (mole fraction) (in ethyl acetate, 298.15 K): 0.146
- solubility (mole fraction) (in ethyl acetate, 303.15 K): 0.195
- solubility (mole fraction) (in ethyl acetate, 308.15 K): 0.25
- solubility (mole fraction) (in ethyl acetate, 313.15 K): 0.315
- solubility (mole fraction) (in ethyl acetate, 318.15 K): 0.386
- solubility (mole fraction) (in ethyl acetate, 323.15 K): 0.461
- solubility (mole fraction) (in isopropanol, 283.15 K): 0.00545
- solubility (mole fraction) (in isopropanol, 288.15 K): 0.00703
- solubility (mole fraction) (in isopropanol, 293.15 K): 0.00942
- solubility (mole fraction) (in isopropanol, 298.15 K): 0.0134
- solubility (mole fraction) (in isopropanol, 303.15 K): 0.0199
- solubility (mole fraction) (in isopropanol, 308.15 K): 0.0305
- solubility (mole fraction) (in isopropanol, 313.15 K): 0.0497
- solubility (mole fraction) (in isopropanol, 318.15 K): 0.0838
- solubility (mole fraction) (in isopropanol, 323.15 K): 0.146
- solubility (mole fraction) (in isopropyl acetate, 283.15 K): 0.0389
- solubility (mole fraction) (in isopropyl acetate, 288.15 K): 0.0537
- solubility (mole fraction) (in isopropyl acetate, 293.15 K): 0.0736
- solubility (mole fraction) (in isopropyl acetate, 298.15 K): 0.101
- solubility (mole fraction) (in isopropyl acetate, 303.15 K): 0.135
- solubility (mole fraction) (in isopropyl acetate, 308.15 K): 0.182
- solubility (mole fraction) (in isopropyl acetate, 313.15 K): 0.243
- solubility (mole fraction) (in isopropyl acetate, 318.15 K): 0.321
- solubility (mole fraction) (in isopropyl acetate, 323.15 K): 0.423
- solubility (mole fraction) (in methanol, 283.15 K): 0.00958
- solubility (mole fraction) (in methanol, 288.15 K): 0.0128
- solubility (mole fraction) (in methanol, 293.15 K): 0.0179
- solubility (mole fraction) (in methanol, 298.15 K): 0.0261
- solubility (mole fraction) (in methanol, 303.15 K): 0.0402
- solubility (mole fraction) (in methanol, 308.15 K): 0.0638
- solubility (mole fraction) (in methanol, 313.15 K): 0.106
- solubility (mole fraction) (in methanol, 318.15 K): 0.183
- solubility (mole fraction) (in methanol, 323.15 K): 0.327
- solubility (mole fraction) (in n-butanol, 283.15 K): 0.00774
- solubility (mole fraction) (in n-butanol, 288.15 K): 0.00978
- solubility (mole fraction) (in n-butanol, 293.15 K): 0.0129
- solubility (mole fraction) (in n-butanol, 298.15 K): 0.018
- solubility (mole fraction) (in n-butanol, 303.15 K): 0.0265
- solubility (mole fraction) (in n-butanol, 308.15 K): 0.0409
- solubility (mole fraction) (in n-butanol, 313.15 K): 0.0657
- solubility (mole fraction) (in n-butanol, 318.15 K): 0.111
- solubility (mole fraction) (in n-butanol, 323.15 K): 0.193
- solubility (mole fraction) (in n-heptane, 283.15 K): 5.37e-05
- solubility (mole fraction) (in n-heptane, 288.15 K): 0.000146
- solubility (mole fraction) (in n-heptane, 293.15 K): 0.000336
- solubility (mole fraction) (in n-heptane, 298.15 K): 0.000693
- solubility (mole fraction) (in n-heptane, 303.15 K): 0.00141
- solubility (mole fraction) (in n-heptane, 308.15 K): 0.00222
- solubility (mole fraction) (in n-heptane, 313.15 K): 0.00361
- solubility (mole fraction) (in n-heptane, 318.15 K): 0.00573
- solubility (mole fraction) (in n-heptane, 323.15 K): 0.00905
- solubility (mole fraction) (in n-hexane, 283.15 K): 0.000515
- solubility (mole fraction) (in n-hexane, 288.15 K): 0.000732
- solubility (mole fraction) (in n-hexane, 293.15 K): 0.00107
- solubility (mole fraction) (in n-hexane, 298.15 K): 0.0016
- solubility (mole fraction) (in n-hexane, 303.15 K): 0.00233
- solubility (mole fraction) (in n-hexane, 308.15 K): 0.0035
- solubility (mole fraction) (in n-hexane, 313.15 K): 0.00533
- solubility (mole fraction) (in n-hexane, 318.15 K): 0.00803
- solubility (mole fraction) (in n-hexane, 323.15 K): 0.0121
- solubility (mole fraction) (in n-propanol, 283.15 K): 0.00747
- solubility (mole fraction) (in n-propanol, 288.15 K): 0.00951
- solubility (mole fraction) (in n-propanol, 293.15 K): 0.0127
- solubility (mole fraction) (in n-propanol, 298.15 K): 0.0179
- solubility (mole fraction) (in n-propanol, 303.15 K): 0.0264
- solubility (mole fraction) (in n-propanol, 308.15 K): 0.041
- solubility (mole fraction) (in n-propanol, 313.15 K): 0.0658
- solubility (mole fraction) (in n-propanol, 318.15 K): 0.111
- solubility (mole fraction) (in n-propanol, 323.15 K): 0.191
- solubility (mole fraction) (in sec-butanol, 283.15 K): 0.00911
- solubility (mole fraction) (in sec-butanol, 288.15 K): 0.0137
- solubility (mole fraction) (in sec-butanol, 293.15 K): 0.0206
- solubility (mole fraction) (in sec-butanol, 298.15 K): 0.0314
- solubility (mole fraction) (in sec-butanol, 303.15 K): 0.0481
- solubility (mole fraction) (in sec-butanol, 308.15 K): 0.0755
- solubility (mole fraction) (in sec-butanol, 313.15 K): 0.118
- solubility (mole fraction) (in sec-butanol, 318.15 K): 0.189
- solubility (mole fraction) (in sec-butanol, 323.15 K): 0.301
